The values that follow come from publication PMC10254314 (2023).

What is called ΔTm is the change in melting temperature against a reference sample.

The subject of experiment [1] is poly A–poly U (pApU) (RNA, polymer) A/U. As to the kind of experiment: UV thermal melting at 260 nm. The conditions noted are these: Na+ (sodium cacodylate, I = 0.05 M), pH 7, r = [compound]/[polynucleotide] = 0.3, polynucleotide 2 × 10^-5 M, per base.
The test system of experiment [2] is poly dAdT–poly dAdT (AT-DNA) (DNA, polymer) AT. As to the kind of experiment: UV thermal melting at 260 nm. The note with it: Na+ (sodium cacodylate, I = 0.05 M), pH 7, r = [compound]/[polynucleotide] = 0.3, polynucleotide 2 × 10^-5 M, per base.
For experiment [3] the test system is unchanged. As to the kind of experiment: UV/vis titration, Scatchard (McGhee–von Hippel) fit. The note with it: Na+ (sodium cacodylate, I = 0.05 M), pH 7.0, n fixed 0.2, per base.

As for `COc1cc2c(cc1OC)SC(c1ccc(NCc3ccc(Cl)cc3)cc1)=[N+](C)C2`, the ΔTm result in experiment [1] was “+1 ± 0.5 °C”.
The same measure, in the same setting: in the case of `COc1cc2c(cc1OC)SC(c1ccc(NCc3cccc(C)c3)cc1)=[N+](C)C2` it was −1.5 ± 0.5 °C.
On to `COc1ccc(Nc2ccc(C3=[N+](C)Cc4cc(Nc5ccc(OC)cc5)ccc4S3)cc2)cc1`, for which the ΔTm entry in experiment [1] is “+3.5 ± 0.5 °C”; in experiment [2] it was −1.5 ± 0.5 °C. In addition, in experiment [3], the logKs was found to be 4.9.
For `COc1ccc(Nc2ccc(C3=[N+](C)Cc4cccc(Nc5ccc(OC)cc5)c4S3)cc2)cc1`, in that order: −1.2 ± 0.5 °C, −2.1 ± 0.5 °C and 4.9.
